{"source": "patent US20230405028A1", "about": "(priority 2020, published 2023)", "key": {"BDNF": {"test_system": "BDNF", "experiment": "BDNF in A-172 cells", "assay_type": "cell-based", "conditions": "escalating doses", "description": "(§1) This experiment was designed to explore the synergistic interaction of 5HT2A agonist and a TRP agonists on receptors in the brain that are associated with depression and/or inflammation. […] The development of an inflammatory microenvironment is considered important to the initiation and progression of glioblastoma; however, therapeutic approaches to target inflammation have previously been limited. The abnormal function of IL-6 and IL-8 has been predicted to lead to glioblastoma.\n(§2) Thus, unlike the experiments on HSIEC cells described above, no inflammatory treatment was applied to the A-172 cells. The A-172 cells were grown to […] confluence on T-25 flasks to allow a 96-hour duration of exposure of the cells to the compounds of interest"}, "COX-2": {"test_system": "COX-2", "experiment": "COX-2 in A-172 cells", "assay_type": "cell-based", "conditions": "5 μM psilocybin + 25 μM eugenol vs 5 μM psilocybin alone, eugenol alone 25 μM", "description": "as §1, §2"}, "[1]": {"test_system": "Human primary small intestinal epithelial cells (HSIEC)"}, "A-172 glioblastoma cells": {"test_system": "A-172 glioblastoma cells", "experiment": "MTT cell viability assay in A-172 cells"}}, "note": "Like-named read-outs stand apart in the source and are kept apart here."}
{"smiles": "C=CCc1ccc(O)c(OC)c1", "note": "[eugenol]", "values": [{"measurement": "dose resulting in the greatest increase in BDNF", "setting": "BDNF", "result": 100, "unit": "µM"}, {"measurement": "effect on COX-2", "setting": "COX-2", "result": "increase"}, {"measurement": "effect on cell growth / cellular metabolic activity (MTT, words)", "setting": "[1]", "result": "slight inhibitory effect on cell growth"}, {"measurement": "Cellular Metabolic Activity", "setting": "[1]; 10 μM, 24 h", "result": 0.064}, {"measurement": "Cellular Metabolic Activity", "setting": "[1]; 10 μM, 48 h", "result": 0.168}, {"measurement": "Cellular Metabolic Activity", "setting": "[1]; 10 μM, 72 h", "result": 0.346}, {"measurement": "Cellular Metabolic Activity", "setting": "[1]; 10 μM, 96 h", "result": 0.632}, {"measurement": "Cellular Metabolic Activity", "setting": "[1]; 10 μM, time 0", "result": 0.047}, {"measurement": "Cellular Metabolic Activity", "setting": "[1]; 50 μM, 24 h", "result": 0.079}, {"measurement": "Cellular Metabolic Activity", "setting": "[1]; 50 μM, 48 h", "result": 0.145}, {"measurement": "Cellular Metabolic Activity", "setting": "[1]; 50 μM, 72 h", "result": 0.337}, {"measurement": "Cellular Metabolic Activity", "setting": "[1]; 50 μM, 96 h", "result": 0.647}, {"measurement": "Cellular Metabolic Activity", "setting": "[1]; 50 μM, time 0", "result": 0.038}, {"measurement": "Cellular Metabolic Activity", "setting": "[1]; 100 μM, 24 h", "result": 0.075}, {"measurement": "Cellular Metabolic Activity", "setting": "[1]; 100 μM, 48 h", "result": 0.136}, {"measurement": "Cellular Metabolic Activity", "setting": "[1]; 100 μM, 72 h", "result": 0.346}, {"measurement": "Cellular Metabolic Activity", "setting": "[1]; 100 μM, 96 h", "result": 0.662}, {"measurement": "Cellular Metabolic Activity", "setting": "[1]; 100 μM, time 0", "result": 0.038}, {"measurement": "Cellular Metabolic Activity", "setting": "[1]; 200 μM, 24 h", "result": 0.064}, {"measurement": "Cellular Metabolic Activity", "setting": "[1]; 200 μM, 48 h", "result": 0.111}, {"measurement": "Cellular Metabolic Activity", "setting": "[1]; 200 μM, 72 h", "result": 0.296}, {"measurement": "Cellular Metabolic Activity", "setting": "[1]; 200 μM, 96 h", "result": 0.652}, {"measurement": "Cellular Metabolic Activity", "setting": "[1]; 200 μM, time 0", "result": 0.041}, {"measurement": "Cellular Metabolic Activity", "setting": "[1]; 400 μM, 24 h", "result": 0.059}, {"measurement": "Cellular Metabolic Activity", "setting": "[1]; 400 μM, 48 h", "result": 0.128}, {"measurement": "Cellular Metabolic Activity", "setting": "[1]; 400 μM, 72 h", "result": 0.242}, {"measurement": "Cellular Metabolic Activity", "setting": "[1]; 400 μM, 96 h", "result": 0.549}, {"measurement": "Cellular Metabolic Activity", "setting": "[1]; 400 μM, time 0", "result": 0.042}, {"measurement": "Cellular Metabolic Activity", "setting": "[1]; 800 μM, 24 h", "result": 0.053}, {"measurement": "Cellular Metabolic Activity", "setting": "[1]; 800 μM, 48 h", "result": 0.091}, {"measurement": "Cellular Metabolic Activity", "setting": "[1]; 800 μM, 96 h", "result": 0.268}, {"measurement": "Cellular Metabolic Activity", "setting": "[1]; 800 μM, time 0", "result": 0.042}, {"measurement": "Cellular Metabolic Activity", "setting": "A-172 glioblastoma cells; 10 μM, 24 h", "result": 0.137}, {"measurement": "Cellular Metabolic Activity", "setting": "A-172 glioblastoma cells; 10 μM, 48 h", "result": 0.234}, {"measurement": "Cellular Metabolic Activity", "setting": "A-172 glioblastoma cells; 10 μM, 72 h", "result": 0.329}, {"measurement": "Cellular Metabolic Activity", "setting": "A-172 glioblastoma cells; 10 μM, 96 h", "result": 0.533}, {"measurement": "Cellular Metabolic Activity", "setting": "A-172 glioblastoma cells; 10 μM, time 0", "result": 0.084}, {"measurement": "Cellular Metabolic Activity", "setting": "A-172 glioblastoma cells; 25 μM, 24 h", "result": 0.153}, {"measurement": "Cellular Metabolic Activity", "setting": "A-172 glioblastoma cells; 25 μM, 48 h", "result": 0.266}, {"measurement": "Cellular Metabolic Activity", "setting": "A-172 glioblastoma cells; 25 μM, 72 h", "result": 0.318}, {"measurement": "Cellular Metabolic Activity", "setting": "A-172 glioblastoma cells; 25 μM, 96 h", "result": 0.557}, {"measurement": "Cellular Metabolic Activity", "setting": "A-172 glioblastoma cells; 25 μM, time 0", "result": 0.083}, {"measurement": "Cellular Metabolic Activity", "setting": "A-172 glioblastoma cells; 50 μM, 24 h", "result": 0.146}, {"measurement": "Cellular Metabolic Activity", "setting": "A-172 glioblastoma cells; 50 μM, 48 h", "result": 0.229}, {"measurement": "Cellular Metabolic Activity", "setting": "A-172 glioblastoma cells; 50 μM, 72 h", "result": 0.327}, {"measurement": "Cellular Metabolic Activity", "setting": "A-172 glioblastoma cells; 50 μM, 96 h", "result": 0.542}, {"measurement": "Cellular Metabolic Activity", "setting": "A-172 glioblastoma cells; 50 μM, time 0", "result": 0.086}, {"measurement": "Cellular Metabolic Activity", "setting": "A-172 glioblastoma cells; 100 μM, 24 h", "result": 0.170}, {"measurement": "Cellular Metabolic Activity", "setting": "A-172 glioblastoma cells; 100 μM, 48 h", "result": 0.230}, {"measurement": "Cellular Metabolic Activity", "setting": "A-172 glioblastoma cells; 100 μM, 72 h", "result": 0.322}, {"measurement": "Cellular Metabolic Activity", "setting": "A-172 glioblastoma cells; 100 μM, 96 h", "result": 0.516}, {"measurement": "Cellular Metabolic Activity", "setting": "A-172 glioblastoma cells; 100 μM, time 0", "result": 0.082}, {"measurement": "Cellular Metabolic Activity", "setting": "A-172 glioblastoma cells; 200 μM, 24 h", "result": 0.170}, {"measurement": "Cellular Metabolic Activity", "setting": "A-172 glioblastoma cells; 200 μM, 48 h", "result": 0.224}, {"measurement": "Cellular Metabolic Activity", "setting": "A-172 glioblastoma cells; 200 μM, 72 h", "result": 0.313}, {"measurement": "Cellular Metabolic Activity", "setting": "A-172 glioblastoma cells; 200 μM, 96 h", "result": 0.431}, {"measurement": "Cellular Metabolic Activity", "setting": "A-172 glioblastoma cells; 200 μM, time 0", "result": 0.089}, {"measurement": "Cellular Metabolic Activity", "setting": "A-172 glioblastoma cells; 400 μM, 24 h", "result": 0.173}, {"measurement": "Cellular Metabolic Activity", "setting": "A-172 glioblastoma cells; 400 μM, 48 h", "result": 0.208}, {"measurement": "Cellular Metabolic Activity", "setting": "A-172 glioblastoma cells; 400 μM, 72 h", "result": 0.272}, {"measurement": "Cellular Metabolic Activity", "setting": "A-172 glioblastoma cells; 400 μM, 96 h", "result": 0.422}, {"measurement": "Cellular Metabolic Activity", "setting": "A-172 glioblastoma cells; 400 μM, time 0", "result": 0.088}, {"measurement": "effect on cell growth (MTT, words)", "setting": "A-172 glioblastoma cells; A-172, psilocybin 80 μM", "result": "slight inhibitory effect"}]}
